From patent publication US8021848B2, “Rapid and sensitive detection of cells and viruses” (Straus Holdings Inc., priority 2001, dated 2011)

Tests used:
[1] = system: E. coli MG1655 (sensitive strain); test: Rapid antimicrobial susceptibility testing (broth dilution, large area CCD imaging); assay type: cell-based; conditions: after 4 hours of growth; comparable by CCD imaging, liquid culture or colony counting
Description: (§1) Cells of two strains, one resistant and one sensitive, were tested for their ability to grow in a period of several hours in the antibiotic. Growth was detected by large area imaging of individual cells stained with a fluorescent nucleic acid stain.
(§2) Experimental procedure. […] Also at these times points both a visible turbidity growth check and a plate count were performed. The turbidity check was performed according to NCCLS broth dilution guidelines. A “+” was recorded for a turbid culture and a “−” for non-turbid culture. The 1 ml aliquots were then stained with Syber Green I as in Example 2. Aliquots (10 μl) of the stained cells were placed in separate wells (with optically clear bottoms) of a 96 well plate (Greiner America, Inc.; cat. num. 655896), which contained 90 μl of water (Type I quality). The plates were spun in a centrifuge (Beckman Allegra) for 10 min at 600 g and then imaged. Fluorescence was detected by imaging using a CCD imager (described in Step 6 of Detailed description section and shown in FIG. 3) with an FITC optical filter set (Chroma/excitation 470/40 nm, emission 522/40 nm). Image-Pro Plus software, version 4.1 (Media cybernetics) was used to capture and process images from the CCD Imager.

[2] = system: E. coli MG1655/pLAFRI (resistant strain); conditions: after 4 hours of growth; comparable by CCD imaging, liquid culture or colony counting
Description: as §1, §2

## CN(C)[C@@H]1C(O)=C(C(N)=O)C(=O)[C@@]2(O)C(O)=C3C(=O)c4c(O)cccc4[C@@](C)(O)[C@H]3C[C@@H]12 [tetracycline]
[1]
  antibiotic concentration that inhibited growth of the antibiotic sensitive strain: 0.25 µg/mL
[2]
  antibiotic concentration in which dramatic growth of the resistant strain was evident: 64 µg/mL
